In US20240166652A1, “MODULATORS OF THE INTEGRATED STRESS PATHWAY” (Calico Life Sciences LLC, priority 2017, published 2024):
pEC50: −log10 of the molar value.

Each compound was assayed on ATF4 luciferase reporter in HEK293T cells (assay: ATF4-Luc assay (ATF4 luciferase reporter, tunicamycin-treated HEK293T cells)). Conditions: Homo sapiens, HEK-293T; HEK293T cells carrying the ATF4 luciferase reporter, 1 μg/mL tunicamycin, 7 hours.
Assay type: cell-based, human
Experimental: In order to test exemplary compounds of the invention in a cellular context, a stable VWMD cell line was first constructed. The ATF4 reporter was prepared by fusing the human full-length ATF4 5′-UTR (NCBI Accession No. BC022088.2) in front of the firefly luciferase (FLuc) coding sequence lacking the initiator methionine as described in Sidrauski et al (eLife 2013). The construct was used to produce recombinant retroviruses using standard methods and the resulting viral supernatant was used to transduce HEK293T cells, which were then subsequently selected with puromycin to generate a stable cell line.
HEK293T cells carrying the ATF4 luciferase reporter were plated on polylysine coated 384-well plates (Greiner Bio-one) at 30,000 cells per well. Cells were treated the next day with 1 μg/mL tunicamycin and 200 nM of a compound of Formula (I) for 7 hours. Luminescence was measured using One Glo (Promega) as specified by the manufacturer. Cells were maintained in DMEM with L-glutamine supplemented with 10% heat-inactivated FBS (Gibco) and Antibiotic-Antimycotic solution (Gibco).
Table 2 below summarizes the EC50 data obtained using the ATF4-Luc assay for exemplary compounds of the invention.

Q: With O=C(COc1ccc(Cl)cc1)NC12CCC(NC(=O)COc3ccc(Cl)cc3)(CC1)CC2 [Compound 744, N,N′-(bicyclo[2.2.2]octane-1,4-diyl)bis[2-(4-chlorophenoxy)acetamide]] as the compound, how does the pEC50 read?
A: > 8.00

Q: How did the pEC50 turn out when COc1cc(OCC(=O)NC23CCC(NC(=O)COc4ccc(Cl)c(F)c4)(CC2)[C@@H](O)C3)ccc1F [Compound 794, 2-(4-chloro-3-fluorophenoxy)-N-{(2S)-4-[2-(4-fluoro-3-methoxyphenoxy)acetamido]-2-hydroxybicyclo[2.2.2]octan-1-yl}acetamide] was run?
A: > 8.00

Q: With O=C(COCc1ccc(F)cc1)NC12CC(NC(=O)COc3ccc(Cl)c(Cl)c3)(C1)C2 [Compound 157, 2-(3,4-dichlorophenoxy)-N-(3-{2-[(4-fluorophenyl)methoxy]acetamido}-bicyclo[1.1.1]pentan-1-yl)acetamide] as the compound, how does the pEC50 read?
A: 7.30 to 8.00

Q: Cc1ccc(OCC(=O)NC23CCC(NC(=O)COc4ccc(C)cc4)(CC2)[C@@H](O)C3)cc1 [Compound 442, N,N′-[(2S)-2-hydroxybicyclo[2.2.2]octane-1,4-diyl]bis[2-(4-methylphenoxy)acetamide]] was tested. Which pEC50 did it give?
A: > 8.00

Q: With COC(=O)c1ncc(OCC(=O)NC23CCC(NC(=O)COc4ccc(Cl)c(F)c4)(CC2)[C@@H](O)C3)cn1 [Compound 622, methyl 5-[2-({(3S)-4-[2-(4-chloro-3-fluorophenoxy)acetamido]-3-hydroxybicyclo[2.2.2]octan-1-yl}amino)-2-oxoethoxy]pyrimidine-2-carboxylate] as the compound, how does the pEC50 read?
A: 5.70 to 6.30

Q: How did the pEC50 turn out when O=C(COc1ccc(Cl)c(F)c1)NC12CC(NC(=O)C(=O)Cc3ccc(Cl)cc3)(C1)C2 [Compound 312, N-{3-[2-(4-chloro-3-fluorophenoxy)acetamido]bicyclo[1.1.1]pentan-1-yl}-3-(4-chlorophenyl)-2-oxopropanamide] was run?
A: 6.60 to 7.30

Q: With COc1ncc(OCC(=O)NC23CCC(NC(=O)COc4ccc(F)cc4)(CC2)[C@@H](O)C3)cn1 [Compound 631, 2-(4-fluorophenoxy)-N-[(2S)-2-hydroxy-4-{2-[(2-methoxypyrimidin-5-yl)oxy]acetamido}bicyclo[2.2.2]octan-1-yl]acetamide] as the compound, how does the pEC50 read?
A: 6.60 to 7.30

Q: How did the pEC50 turn out when O=C(COc1ccc(F)cc1)NC12CCC(NC(=O)COc3ccc(C(F)(F)F)c(F)c3)(CC1)[C@@H](O)C2 [Compound 835, 2-(4-fluorophenoxy)-N-[(3S)-4-{2-[3-fluoro-4-(trifluoromethyl)phenoxy]acetamido}-3-hydroxybicyclo[2.2.2]octan-1-yl]acetamide] was run?
A: > 8.00

Q: How did the pEC50 turn out when O=C(COc1ccc(Cl)cc1)NC12CCC(NC(=O)COc3ccc(F)cc3)(CC1)[C@@H](O)C2 [Compound 614, 2-(4-chlorophenoxy)-N-{(3S)-4-[2-(4-fluorophenoxy)acetamido]-3-hydroxybicyclo[2.2.2]octan-1-yl}acetamide] was run?
A: > 8.00

Q: O=C(COc1cccc(C(F)(F)F)c1)NC12CCC(NC(=O)COc3ccc(Cl)c(F)c3)(CC1)[C@@H](O)C2 [Compound 466, 2-(4-chloro-3-fluorophenoxy)-N-[(2S)-2-hydroxy-4-{2-[3-(trifluoromethyl)phenoxy]acetamido}bicyclo[2.2.2]octan-1-yl]acetamide] was tested. Which pEC50 did it give?
A: > 8.00

Q: O=C(COc1ccc(OC(F)(F)F)c(F)c1)NC12CCC(NC(=O)COc3ccc(OC(F)(F)F)cc3)(CC1)[C@@H](O)C2 [Compound 764, 2-[3-fluoro-4-(trifluoromethoxy)phenoxy]-N-[(3S)-3-hydroxy-4-{2-[4-(trifluoromethoxy)phenoxy]acetamido}bicyclo[2.2.2]octan-1-yl]acetamide] was tested. Which pEC50 did it give?
A: 7.30 to 8.00

Q: How did the pEC50 turn out when O=C(COc1ccc(C2CC2)nc1)NC12CC(NC(=O)COc3ccc(Cl)c(F)c3)(C1)C2 [Compound 251, 2-(4-chloro-3-fluorophenoxy)-N-(3-{2-[(6-cyclopropylpyridin-3-yl)oxy]acetamido}bicyclo[1.1.1]pentan-1-yl)acetamide] was run?
A: 7.30 to 8.00

Q: How did the pEC50 turn out when Cc1cc(C)cc(OCC(=O)NC23CCC(NC(=O)COc4ccc(Cl)c(F)c4)(CC2)C[C@@H]3O)c1 [Compound 502, 2-(4-chloro-3-fluorophenoxy)-N-{(3S)-4-[2-(3,5-dimethylphenoxy)acetamido]-3-hydroxybicyclo[2.2.2]octan-1-yl}acetamide] was run?
A: 6.60 to 7.30

Q: With N#Cc1cc(OCC(=O)NC23CC(NC(=O)COc4ccc5c(c4)OC(F)(F)O5)(C2)C3)ccn1 [Compound 270, 2-[(2-cyanopyridin-4-yl)oxy]-N-(3-{2-[(2,2-difluoro-2H-1,3-benzodioxol-5-yl)oxy]acetamido}bicyclo[1.1.1]pentan-1-yl)acetamide] as the compound, how does the pEC50 read?
A: 6.30 to 6.60

Q: How did the pEC50 turn out when COC(=O)[C@@H]1CC2(NC(=O)COc3ccc(Cl)c(F)c3)CCC1(NC(=O)COc1ccc(Cl)c(F)c1)CC2 [Compound 563, methyl (2R)-1,4-bis[2-(4-chloro-3-fluorophenoxy)acetamido]bicyclo[2.2.2]octane-2-carboxylate] was run?
A: > 8.00

Q: Cc1n[nH]c2cc(OCC(=O)NC34CCC(NC(=O)COc5ccc(OC(F)(F)F)c(F)c5)(CC3)C[C@@H]4O)ccc12 [Compound 747, 2-[3-fluoro-4-(trifluoromethoxy)phenoxy]-N-[(3S)-3-hydroxy-4-{2-[(3-methyl-1H-indazol-6-yl)oxy]acetamido}bicyclo[2.2.2]octan-1-yl]acetamide] was tested. Which pEC50 did it give?
A: 7.30 to 8.00

Q: With N#Cc1ccc(CS(=O)(=O)NC23CC(NC(=O)COc4ccc(Cl)c(F)c4)(C2)C3)cc1 [Compound 490, 2-(4-chloro-3-fluorophenoxy)-N-(3-{[(4-cyanophenyl)methanesulfonyl]amino}bicyclo[1.1.1]pentan-1-yl)acetamide] as the compound, how does the pEC50 read?
A: 5.70 to 6.30

Q: How did the pEC50 turn out when O=C(COc1ccc(Cl)c(F)c1)NC12CCC(NC(=O)COc3ccc(Cl)c(F)c3)(C[C@H]1O)[C@@H](O)C2 (racemic) [Compound 557, rac-N,N′-[(2R,5S)-2,5-dihydroxybicyclo[2.2.2]octane-1,4-diyl]bis[2-(4-chloro-3-fluorophenoxy)acetamide]] was run?
A: > 8.00

Q: How did the pEC50 turn out when N#Cc1cccc(COCC(=O)NC23CC(NC(=O)COc4ccc(Cl)c(F)c4)(C2)C3)c1 [Compound 138, 2-(4-chloro-3-fluorophenoxy)-N-(3-{2-[(3-cyanophenyl)methoxy]acetamido}-bicyclo[1.1.1]pentan-1-yl)acetamide] was run?
A: 6.30 to 6.60

Q: With CO[C@@H]1C[C@]2(NC(=O)COc3ccc(Cl)c(F)c3)CC[C@@]1(NC(=O)COc1ccc(Cl)c(F)c1)CC2O (mixture of isomers) [Compound 554, rac-N,N′-[(1R,4R,5R)-2-hydroxy-5-methoxybicyclo[2.2.2]octane-1,4-diyl]bis[2-(4-chloro-3-fluorophenoxy)acetamide]] as the compound, how does the pEC50 read?
A: > 8.00

Q: With O=C(CCCc1cccc(Cl)c1)NC12CC(NC(=O)COc3ccc(Cl)c(F)c3)(C1)C2 [Compound 543, N-{3-[2-(4-chloro-3-fluorophenoxy)acetamido]bicyclo[1.1.1]pentan-1-yl}-4-(3-chlorophenyl)butanamide] as the compound, how does the pEC50 read?
A: 6.60 to 7.30

Q: CCc1ccc(OCC(=O)NC23CCC(NC(=O)COc4ccc(F)c(F)c4)(CC2)[C@@H](O)C3)cc1 [Compound 778, 2-(3,4-difluorophenoxy)-N-{(2S)-4-[2-(4-ethylphenoxy)acetamido]-2-hydroxybicyclo[2.2.2]octan-1-yl}acetamide] was tested. Which pEC50 did it give?
A: 7.30 to 8.00

Q: CN(CC(=O)O)C1CC2(NC(=O)COc3ccc(Cl)c(F)c3)CCC1(NC(=O)COc1ccc(Cl)c(F)c1)CC2 (centres unmarked) [Compound 700, [{1,4-bis[2-(4-chloro-3-fluorophenoxy)acetamido]bicyclo[2.2.2]octan-2-yl}(methyl)amino]acetic Acid] was tested. Which pEC50 did it give?
A: 6.30 to 6.60
